According to US11357776B2, “Pharmaceutical combinations comprising a histone deacetylase inhibitor and an aurora kinase inhibitor and methods of use thereof” (ACETYLON PHARMACEUTICALS, INC., priority 2016, dated 2022):

Key:
aurora kinase = aurora kinase isoform selectivity, Choudary et al. 2015; cited from earlier work
[1] = system: Jeko-1 mantle cell lymphoma, SU-DHL-4 B cell lymphoma, and Jurkat T cell lymphoma cells; assay: Annexin V / propidium iodide flow cytometry apoptosis assay; format: cell-based; details: 72 hours; 3 μM Compound B, 0.01 or 0.03 μM alisertib, alone or combined; single-agent effect in some cell lines only
Method: To test for induction of apoptosis, Jeko-1 mantle cell lymphoma, SU-DHL-4 B cell lymphoma, and Jurkat T cell lymphoma cells were treated for 72 hours with either: DMSO, 3 μM of Compound B, 0.01 μM of alisertib, 0.03 μM of alisertib, or a combination of both Compound B and alisertib for 72 hrs. Cells were then harvested and stained with Annexin V, which recognizes an epitope on cells in the early stages of apoptosis. Cells were also stained with propidium iodide, which is excluded from cells with intact membranes, thus marking only dead cells. Flow cytometry analysis was then performed to measure the number of healthy and apoptotic cells under each treatment condition.

[2] = system: Jurkat T cell lymphoma cells; assay: as above; format: cell-based; details: 72 hours, 3 μM Compound A or B, 0.01 μM alisertib, alone or combined
Method: To determine the extent that the combination therapies of Compound A/alisertib and Compound B/alisertib promote induction of apoptosis, Jurkat T cell lymphoma cells were treated with: DMSO, 3 μM of Compound B, 3 μM of Compound A, 0.01 μM of alisertib, a combination of Compound B/alisertib, or a combination of Compound A/alisertib, for 72 hours. Cells were then harvested and stained with Annexin V and propidium iodide as above. Flow cytometry analysis was then used to measure the number of healthy and apoptotic cells under each treatment condition.

[3] = system: survivin, Aurora A, Aurora B, BubR1, CDC20 and MAD2L1 gene transcripts in H929 multiple myeloma cells; assay: Microarray gene expression profiling of H929 cells; format: cell-based; details: H929 cells, 2, 3, or 4 μM, 24 hours or 48 hours, Affymetrix microarray
Method: Microarray gene expression profiling was performed in H929 multiple myeloma (MM) cells to determine whether key mitotic regulators are down regulated by […]. H929 multiple myeloma cells were treated for 24 hours or 48 hours with 2, 3, or 4 μM of Compound A. Total RNA was extracted from the cells and subjected to gene expression profiling using an Affymetrix microarray system (Santa Clara, Calif.).

[4] = system: survivin, Aurora A, Aurora B, BubR1, CDC20 and MAD2L1 gene transcripts in H929 MM, U266 MM and Jeko-1 MCL cell lines; assay: qPCR analysis of mitotic regulator downregulation across MM and MCL cell lines; format: cell-based; details: U266 MM and Jeko-1 MCL cells
Method: Independent qPCR validation of mitotic regulator downregulation by Compound A across MM and MCL cell lines was performed using H929 MM, U266 MM and Jeko-1 MCL cell lines. The cells were treated with Compound A. Total RNA was extracted and gene expression was measured by quantitative polymerase chain reaction (PCR) analysis.

## O=C(Nc1c[nH]nc1-c1nc2cc(CN3CCOCC3)ccc2[nH]1)NC1CC1 [AT-9283]
Aurora kinase
  Selectivity: Aurora A and Aurora B

## COc1cc(Nc2ncc3c(n2)-c2ccc(Cl)cc2C(c2c(F)cccc2OC)=NC3)ccc1C(=O)O [Alisertib]
[1]
  percentage of cells undergoing apoptosis: some induction of apoptosis
Aurora kinase
  Selectivity: Aurora A
[2]
  percentage of cells undergoing apoptosis: minimal induction of apoptosis

## CCN(CCCOc1ccc2c(Nc3cc(CC(=O)Nc4cccc(F)c4)[nH]n3)ncnc2c1)CCOP(=O)(O)O [Barasertib]
Aurora kinase
  Selectivity: Aurora B

## O=C(CCCCCCNC(=O)c1cnc(N(c2ccccc2)c2ccccc2)nc1)NO [Compound A, 2-(diphenylamino)-N-(7-(hydroxyamino)-7-oxoheptyl)pyrimidine-5-carboxamide]
[3]
  expression of key mitotic regulatory genes (relative fold induction vs DMSO): reduced the expression
[4]
  expression of key mitotic regulatory genes (relative to RPLP1, vs DMSO): reduced the expression
[2]
  percentage of cells undergoing apoptosis: minimal induction of apoptosis

## O=C(CCCCCCNC(=O)c1cnc(N(c2ccccc2)c2ccccc2Cl)nc1)NO [Compound B, 2-((2-chlorophenyl)(phenyl)amino)-N-(7-(hydroxyamino)-7-oxoheptyl)pyrimidine-5-carboxamide]
[1]
  percentage of cells undergoing apoptosis: some induction of apoptosis
[2]
  percentage of cells undergoing apoptosis: minimal induction of apoptosis

## CO[C@@H](C(=O)N1Cc2[nH]nc(NC(=O)c3ccc(N4CCN(C)CC4)cc3)c2C1)c1ccccc1 [Danusertib]
Aurora kinase
  Selectivity: Pan

## Cc1cc(Nc2cc(N3CCN(C)CC3)nc(/C=C/c3ccccc3)n2)n[nH]1 [ENMD- 2076]
Aurora kinase
  Selectivity: Aurora A

## O=C(O)[C@]1(Cc2cccc(Nc3nccs3)n2)CC[C@@H](Oc2cccc(Cl)c2F)CC1 [MK-5108]
Aurora kinase
  Selectivity: Aurora A

## Cc1cc(Nc2ncc(F)c(N[C@H]3[C@@H](C(N)=O)[C@@H]4C=C[C@H]3C4)n2)ccc1N1CCN(C)CC1 [MSC 1992371A]
Aurora kinase
  Selectivity: Pan

## Cc1cc(Nc2cc(N3CCN(C)CC3)nc(Sc3ccc(NC(=O)C4CC4)cc3)n2)[nH]n1 [Tozasertib]
Aurora kinase
  Selectivity: Pan
